Experimental data published in patent US20240148672A1, “ORAL THIN FILM” (LTS LOHMANN THERAPIE-SYSTEME AG, priority 2021, published 2024).
Counter-ions that a name gives are not always drawn.

Legend:
[1] = pH value of oral thin film dissolved in demineralised water; type: physicochemical; details: Measured as dissolved OTF in demineralised water temperature-controlled to 32° C. (blank value pH 7.12)
Description: Oral thin films of the composition according to Table 1 were prepared as follows. The active ingredient or the active ingredient mixture was presented and an aqueous solution of the matrix polymer was added. The remaining ingredients were then stirred in. The solution was spread and dried in order to obtain an oral thin film.

[2] = (S)-ketamine versus (R) form; cited from earlier work

Row | Compound | pH-value [1] | analgesic and anaesthetic potency relative to the (R) form [2]
1 | CNC1(c2ccccc2Cl)CCCCC1=O (centres unmarked) [ketamine hydrochloride] | 5.32 | –
2 | CNC1(c2ccccc2Cl)CCCCC1=O (racemic) [(S)-ketamine, (S)-(±)-2-(2-chlorophenyl)-2-(methylamino)cyclohexan-1-one] | – | approximately three times higher
